The numbers were not newly measured in patent US7645462B2, “Acupoint patch” (3T Herbtech, Inc., priority 2002, dated 2010), which cites them from elsewhere.

Structures are written as SMILES.

For data set [1], the system named is arteria femoralis blood circulation. Particulars: intravenous 50 mg/kg, sedated animals.

In the case of `COc1cc(/C=C/C(=O)O)ccc1O.[Na]` [ferulic acid sodium], in data set [1], the “arteria femoralis blood circulation” value is given as “increased” and the “external blood vessel resistance” value is recorded as “reduced”. Turning to `COc1cc(/C=C/C(=O)O)ccc1O` [ferulic acid], in the data set with separated major arteries, the “dilation of separated major arteries” value is listed as “can dilate”.
